Source: patent US20230173047A1, “CITRULLINATED NUCLEOPHOSMIN PEPTIDES AS CANCER VACCINES” (SCANCELL LIMITED, priority 2020, published 2023)
Where a SMILES comes first, the peptide text is derived from it. [ ]: non-standard residue; d: D form. Cit = NC(=O)NCCC[C@H](N)C(=O)O

Key:
Format in all cases: in vivo, mouse
[1] = tested on: T cell response in HLA-DR4 and HHDII/DP4 transgenic mice; assay: Screening of citrullinated NPM peptides for T cell (IFNy) responses in HLA-DR4 and HHDII/DP4 transgenic mice; conditions: for T cell response: citrullinated NPM peptides, HLA-DR4 and HHDII/DP4 transgenic mice, IFNy ELISpot
Experimental: (§1) HLA-DR4 mice (Taconic, USA) and the HHDII/HLA-DP4 transgenic strain of mouse as described in patent WO2013/017545 A1 (EMMA repository, France) were used, aged between 8 and 12 weeks, and cared for by the staff at Nottingham Trent University. All work was carried out under a Home Office project licence. Peptides were dissolved in 10% dimethylformamide to 1 mg/mL and then emulsified (a series of dilutions) with the adjuvant CpG and MPLA 6 µg/mouse of each (Invivogen, UK). Peptides (25 µg/mouse) were injected subcutaneously at the base of the tail.
(§2) ELISpot assays were performed using murine IFNy capture and detection reagents according to the manufacturer’s instructions (Mabtech, Sweden). In brief, anti-IFNʏ antibody was coated onto wells of a 96-well Immobilin-P plate. Synthetic peptides (at a variety of concentrations) and 5×10^5 per well splenocytes were added to the wells of the plate in triplicate. LPS at 5 µg/mL was used as a positive control. Peptide pulsed target cells were added where relevant at 5×10^4 per well in triplicate and plates incubated for 40 hours at 37° C. After incubation, captured IFNy was detected by a biotinylated anti-IFNʏ antibody and developed with a streptavidin alkaline phosphatase and chromogenic substrate. […] For blocking studies, anti-CD4 blocking antibody (RPA-T4) and anti-CD8 blocking antibody (2.43) from Bioxcell were used at 20 µg/mL. Spots were analysed and counted using an automated plate reader (Cellular Technologies Ltd).
T cell responses to tumour associated epitopes are often weak or non-existent due to tolerance and T cell deletion within the thymus. The citrullinated NPM peptides were screened in HLA-DR4 and HHDII/DP4 transgenic mice for their ability to stimulate IFNy responses. Every peptide containing an arginine was selected and the arginine residue was replaced with citrulline (cit).
(§3) Screening was performed to identify potential citrullinated NPM epitopes that could generate an immune response in mice. Mice were immunised with pools of 4-6 human citrullinated peptides. […] Each pool was administered subcutaneously as a single immunisation given once a week for three weeks. Each peptide pool contained 25 µg of each peptide in combination with CpG/MPLA as an adjuvant. Mice were culled 7 days after the third immunisation, the immune response to each peptide within the immunising pool were assessed by ex vivo IFNy ELISpot (FIG. 2). We have previously shown that citrullinated peptides can induce responses in the transgenic DR4 mouse strain. Given that different mouse strains have different MHC repertoires, two different transgenic strains (DR4 and DP4) were used for screening.

[2] = tested on: B16 HHDII/iDP4 tumour cells; conditions: immunised tumour bearing mice
Experimental: as §1
For tumour challenge experiments, mice were challenged with 1×10^5 B16 HHDII/iDP4, B16F1HHDIIMHCIIKO or B16 HHDII/PAD2KOcDP4 cells subcutaneously on the right flank 3 days before primary immunisation (unless stated otherwise) and then immunised as described above. Tumour growth was monitored at 3-4 days intervals and mice humanely euthanised once tumour reached ≥10 mm in diameter.
The inventors had already established by Western blotting that the melanoma B16F1 cell lines constitutively express NPM and in vitro citrullination of NPM generates citrulline at position 277 (FIG. 5A and B). Next, the anti-tumour effect of NPM 266-285 cit peptide immunisation was assessed in vivo. The effect of immunisation with NPM 266-285 (cit and wt) on the growth of the mouse B16 melanoma cell line transfected with IFNy inducible human DP4 (iDP4) was assessed. […]

[3] = tested on: splenocytes of HHDII/DP4 transgenic mice; assay: Ex vivo IFNy ELISpot on splenocytes after peptide immunisation, HHDII/DP4 mice; conditions: for IFNy immune response to peptide: HHDII/DP4 mice immunised with peptide pools, 25 µg each + CpG/MPLA, weekly x3, vs media only
Experimental: as §1, §2, §3
The core epitope was confirmed by immunising mice once weekly for three weeks with 25 µg of the NPM 261-280 cit or 266-285 cit peptide. HHDII/DP4 mice were immunised with the individual peptides whereas HLA-DR4 mice were immunised with a combination of NPM 261-280 cit and 266-285 cit, all given with CpG/MPLA. Mice were culled 7 days after the third immunisation.
To determine if the immune response to the NPM 266-285 peptide is specific to the citrullinated peptide and not the wild type (wt) version, mice were immunised with NPM 266-285 cit or NPM 266-285 wt peptides. HHDII/DP4 mice received 25 µg peptide (NPM 266-285 cit or NPM 266-285 wt) subcutaneously once a week for three weeks. Mice were culled 7 days after the third immunisation, the immune response to each peptide was assessed by ex vivo ELISpot (FIGS. 4A and 4B). […] In contrast, strong IFNy responses were detected in mice immunised with NPM 266-285 cit, these responses were significant when compared to the response to the NPM 266-285 wt peptide (p=0.0002) and the control (p=<0.0001). […]

[4] = tested on: splenocytes of HLA-DR4 transgenic mice; assay: Ex vivo IFNy ELISpot on splenocytes after peptide immunisation, HLA-DR4 mice
Experimental: as §1
ELISpot assays were performed using murine IFNy capture and detection reagents according to the manufacturer’s instructions (Mabtech, Sweden). In brief, anti-IFNʏ antibody was coated onto wells of a 96-well Immobilin-P plate. […] After incubation, captured IFNy was detected by a biotinylated anti-IFNʏ antibody and developed with a streptavidin alkaline phosphatase and chromogenic substrate. […] Spots were analysed and counted using an automated plate reader (Cellular Technologies Ltd).
Screening was performed to identify potential citrullinated NPM epitopes that could generate an immune response in mice. […] Mice were culled 7 days after the third immunisation, the immune response to each peptide within the immunising pool were assessed by ex vivo IFNy ELISpot (FIG. 2). […]

Compound: YVKNCF-cit-MTDQEAI QDLWQW [271-290]
- T cell response [1]: No

Compound: KSNQNGKDSKPSSTP-cit-SKGQ [206-225]
- T cell response [1]: No

Compound: DMDMSPL-cit-PQNYLFGCELKA [6-25]
- T cell response [1]: No

Compound: EDVKLLSISGK-cit-SAPGGGSK [131-150]
- T cell response [1]: No

Compound: GKDSKPSSTP-cit-SKGQESFKK [211-230]
- T cell response [1]: No

Compound: CC[C@H](C)[C@H](NC(=O)[C@H](C)NC(=O)[C@H](CCC(=O)O)NC(=O)[C@H](CCC(N)=O)NC(=O)[C@H](CC(=O)O)NC(=O)[C@@H](NC(=O)[C@H](CCSC)NC(=O)[C@H](CCCNC(N)=O)NC(=O)[C@H](Cc1ccccc1)NC(=O)[C@H](CS)NC(=O)[C@H](CC(N)=O)NC(=O)[C@H](CCCCN)NC(=O)[C@@H](NC(=O)[C@H](Cc1ccc(O)cc1)NC(=O)[C@H](CC(N)=O)NC(=O)[C@@H](NC(=O)[C@H](Cc1ccccc1)NC(=O)[C@H](CCCCN)NC(=O)[C@H](C)N)[C@@H](C)CC)C(C)C)[C@@H](C)O)C(=O)N[C@@H](CCC(N)=O)C(=O)O [NPM 266-285 cit, AKFINYVKNCF-cit-MTDQEAIQ] (H-AKFINYVKNCF[Cit]MTDQEAIQ-OH)
- Associated toxicity [2]: no associated toxicity

Compound: PPVVL-cit-LKCGSGPVHISGQH [96-115]
- T cell response [1]: No

Compound: QLSL-cit-TVSLGAGAKDELHIV [41-60]
- T cell response [1]: No

Compound: LSISGK-cit-SAPGGGSKVPQKK [136-155]
- T cell response [1]: No

Compound: LPKVEAKFINYVKNCF-cit-MTD [NPM 261-280 cit]
- Frequency of IFNy responses ([1]; HHDII/DP4 and HLA-DR4 mice): high frequency IFNy responses
- T cell response [1]: Yes
- IFNy immune response to peptide [3]: significant immune responses
- IFNy response to peptide ([3]; core epitope study, HHDII/DP4 mice immunised with individual peptide 25 µg weekly x3 + CpG/MPLA): Significant IFNʏ responses

Compound: FDDEEAEEKAPVKKSI-cit-DTP [181-200]
- T cell response [1]: No

Compound: GFETPPVVL-cit-LKCGSGPVH [91-110]
- T cell response [1]: No

Compound: F-cit-MTDQEAIQDLWQWcitKSL [276-294]
- T cell response [1]: No

Compound: PSSTP-cit-SKGQESFKKQEKTP [216-235]
- T cell response [1]: No

Compound: DENEHQLSL-cit-TVSLGAGAKD [36-55]
- T cell response [1]: No

Compound: TVSLGGFEITPPVVL-cit-LKCG [86-105]
- T cell response [1]: No

Compound: AEEKAPVKKSI-cit-DTPAKNAQ [186-205]
- T cell response [1]: No
- IFNy immune response to peptide [3]: failed to induce an immune response

Compound: EDEEEEDVKLLSISGK-cit-SAP [126-145]
- T cell response [1]: No

Compound: CC[C@H](C)[C@H](NC(=O)[C@H](C)NC(=O)[C@H](CCC(=O)O)NC(=O)[C@H](CCC(N)=O)NC(=O)[C@H](CC(=O)O)NC(=O)[C@@H](NC(=O)[C@H](CCSC)NC(=O)[C@H](CCCNC(=N)N)NC(=O)[C@H](Cc1ccccc1)NC(=O)[C@H](CS)NC(=O)[C@H](CC(N)=O)NC(=O)[C@H](CCCCN)NC(=O)[C@@H](NC(=O)[C@H](Cc1ccc(O)cc1)NC(=O)[C@H](CC(N)=O)NC(=O)[C@@H](NC(=O)[C@H](Cc1ccccc1)NC(=O)[C@H](CCCCN)NC(=O)[C@H](C)N)[C@@H](C)CC)C(C)C)[C@@H](C)O)C(=O)N[C@@H](CCC(N)=O)C(=O)O [NPM 266-285 wt, reference compound] (H-AKFINYVKNCFRMTDQEAIQ-OH)
- Associated toxicity [2]: no associated toxicity

Compound: FKVDNDENEHQLSL-cit-TVSLG [31-50]
- T cell response [1]: No

Compound: MEDSMDMDMSPL-cit-PQNYLFG [1-20]
- T cell response [1]: No

Compound: AKFINYVKNCF-cit-MTD [NPM 266-280 cit]
- T cell response [1]: Yes
- Response to core peptide compared with NPM 261-280 cit or NPM 266-285 cit ([3]; HHDII/DP4 transgenic mice, IFNy ELISpot): no significant difference
- Response to core peptide compared with NPM 266-285 cit [4]: significant difference

Compound: PVKKSI-cit-DTPAKNAQKSNQN [191-210]
- T cell response [1]: No
- IFNy immune response to peptide [3]: failed to induce an immune response
